# Measured values as given in ChEMBL document CHEMBL5465560, “Selectivity Literature for EUbOPEN Chemogenomic Library” (2024).
# How the values were obtained:
# [1] = target: Insulin receptor-related protein (Homo sapiens) (UniProt P14616); assay: Selectivity interaction (KinomeScan (DiscoverX)) EUB0000229b INSRR; settings: at 10 µM
# [2] = target: T1, NUAK family SNF1-like kinase 2 (Homo sapiens) (UniProt Q9H093); assay: Selectivity interaction (KinomeScan (DiscoverX)) EUB0000229b NUAK2; settings: at 10 µM
# T1 sequence (whole entry): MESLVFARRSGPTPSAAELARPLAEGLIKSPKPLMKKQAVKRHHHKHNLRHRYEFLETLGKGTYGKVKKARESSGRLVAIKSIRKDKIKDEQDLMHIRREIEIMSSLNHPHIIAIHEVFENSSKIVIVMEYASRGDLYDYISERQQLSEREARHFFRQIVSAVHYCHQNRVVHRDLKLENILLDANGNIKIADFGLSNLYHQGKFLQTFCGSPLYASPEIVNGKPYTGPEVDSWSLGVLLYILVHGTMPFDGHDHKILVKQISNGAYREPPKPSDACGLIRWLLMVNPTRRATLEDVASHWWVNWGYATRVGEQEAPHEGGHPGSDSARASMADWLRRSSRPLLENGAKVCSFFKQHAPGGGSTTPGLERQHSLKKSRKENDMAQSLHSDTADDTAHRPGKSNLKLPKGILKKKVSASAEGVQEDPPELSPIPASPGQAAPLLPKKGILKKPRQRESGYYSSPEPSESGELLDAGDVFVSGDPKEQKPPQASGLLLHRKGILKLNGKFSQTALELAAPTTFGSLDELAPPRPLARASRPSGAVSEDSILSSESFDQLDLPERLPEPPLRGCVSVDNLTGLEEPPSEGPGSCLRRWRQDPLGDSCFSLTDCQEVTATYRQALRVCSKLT
# [3] = target: Serine/threonine-protein kinase 26 (Homo sapiens, UniProt Q9P289); assay: Selectivity interaction (KinomeScan (DiscoverX)) EUB0000695a STK26; settings: at 100 nM
# [4] = target: T2, Mitogen-activated protein kinase kinase kinase kinase 2 (Homo sapiens) (UniProt Q12851); assay: Selectivity interaction (Kinase panel (Z-LYTE Assay)) EUB0001632a MAP4K2; settings: at 10 µM
# T2 sequence (whole entry): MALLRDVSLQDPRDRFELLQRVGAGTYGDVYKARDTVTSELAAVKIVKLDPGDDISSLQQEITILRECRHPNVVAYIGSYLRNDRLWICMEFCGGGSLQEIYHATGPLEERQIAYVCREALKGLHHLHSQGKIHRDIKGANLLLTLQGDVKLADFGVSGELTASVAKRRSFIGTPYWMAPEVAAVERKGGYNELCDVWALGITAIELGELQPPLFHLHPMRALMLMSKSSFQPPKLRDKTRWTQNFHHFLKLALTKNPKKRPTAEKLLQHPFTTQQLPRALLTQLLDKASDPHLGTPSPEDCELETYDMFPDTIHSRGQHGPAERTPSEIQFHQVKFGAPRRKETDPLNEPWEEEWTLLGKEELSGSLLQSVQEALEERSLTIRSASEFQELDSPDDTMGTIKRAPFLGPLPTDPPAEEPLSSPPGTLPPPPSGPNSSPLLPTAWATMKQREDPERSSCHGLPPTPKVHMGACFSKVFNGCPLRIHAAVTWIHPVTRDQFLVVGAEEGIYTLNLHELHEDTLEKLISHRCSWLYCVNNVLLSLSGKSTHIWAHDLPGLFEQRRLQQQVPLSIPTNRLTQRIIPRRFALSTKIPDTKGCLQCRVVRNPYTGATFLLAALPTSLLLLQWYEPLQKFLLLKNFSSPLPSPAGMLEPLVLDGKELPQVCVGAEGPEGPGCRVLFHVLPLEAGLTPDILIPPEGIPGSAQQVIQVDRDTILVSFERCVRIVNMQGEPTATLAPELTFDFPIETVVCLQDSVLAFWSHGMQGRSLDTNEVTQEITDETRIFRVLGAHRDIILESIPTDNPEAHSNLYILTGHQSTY
# [5] = target: TGF-beta receptor type-2 (Homo sapiens) (UniProt P37173); settings: at 10 µM
# Chain of TGF-beta receptor type-2 (Homo sapiens) (P37173 whole entry): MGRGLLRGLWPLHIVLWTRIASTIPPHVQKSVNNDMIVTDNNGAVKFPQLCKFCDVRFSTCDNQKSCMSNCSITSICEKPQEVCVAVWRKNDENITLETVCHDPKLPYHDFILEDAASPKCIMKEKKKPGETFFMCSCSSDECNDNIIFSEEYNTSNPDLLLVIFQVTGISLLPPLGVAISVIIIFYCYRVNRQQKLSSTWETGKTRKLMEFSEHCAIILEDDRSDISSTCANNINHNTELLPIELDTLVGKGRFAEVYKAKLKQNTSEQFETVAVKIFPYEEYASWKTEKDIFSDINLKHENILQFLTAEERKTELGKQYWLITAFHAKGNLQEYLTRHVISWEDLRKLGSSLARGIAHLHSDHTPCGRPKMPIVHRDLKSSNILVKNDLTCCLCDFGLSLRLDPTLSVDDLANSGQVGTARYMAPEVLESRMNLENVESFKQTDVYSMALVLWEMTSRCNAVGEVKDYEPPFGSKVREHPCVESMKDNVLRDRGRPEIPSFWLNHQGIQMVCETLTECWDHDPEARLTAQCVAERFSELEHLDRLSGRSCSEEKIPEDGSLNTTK
# [6] = target: Peroxisome proliferator-activated receptor gamma (Homo sapiens) (UniProt P37231); assay: Selectivity interaction (Eurofins CEREP Diversity Profile (receptors and ion channels)) EUB0000279b PPARG; settings: at 10 µM
# Chain of Peroxisome proliferator-activated receptor gamma (Homo sapiens) (P37231 whole entry, canonical isoform): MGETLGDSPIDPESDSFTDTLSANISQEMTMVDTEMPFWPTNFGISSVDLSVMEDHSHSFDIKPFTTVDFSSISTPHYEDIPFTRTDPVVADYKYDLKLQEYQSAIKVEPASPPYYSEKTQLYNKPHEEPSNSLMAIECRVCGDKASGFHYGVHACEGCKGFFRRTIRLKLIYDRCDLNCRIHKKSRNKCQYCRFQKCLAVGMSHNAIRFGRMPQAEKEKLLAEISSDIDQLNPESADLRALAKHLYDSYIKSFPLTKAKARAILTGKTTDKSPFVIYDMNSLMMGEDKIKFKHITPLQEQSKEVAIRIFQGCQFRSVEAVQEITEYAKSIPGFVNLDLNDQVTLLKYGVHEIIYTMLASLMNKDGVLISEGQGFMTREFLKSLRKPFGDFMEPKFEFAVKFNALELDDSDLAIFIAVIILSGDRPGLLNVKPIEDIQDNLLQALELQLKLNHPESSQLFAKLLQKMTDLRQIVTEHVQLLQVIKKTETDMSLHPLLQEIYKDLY
# [7] = target: Casein kinase I isoform gamma-3 (Homo sapiens) (UniProt Q9Y6M4); assay: Selectivity interaction (KinomeScan (DiscoverX)) EUB0001049a CSNK1G3; settings: at 1 µM
# [8] = target: Histone-lysine N-methyltransferase 2A (Homo sapiens) (UniProt Q03164); assay: Selectivity interaction (Methyltransferase screen (Scintillation proximity assays)) EUB0000255b MLL
# Chain of Histone-lysine N-methyltransferase 2A (Homo sapiens) (Q03164 1-2718 limits assumed): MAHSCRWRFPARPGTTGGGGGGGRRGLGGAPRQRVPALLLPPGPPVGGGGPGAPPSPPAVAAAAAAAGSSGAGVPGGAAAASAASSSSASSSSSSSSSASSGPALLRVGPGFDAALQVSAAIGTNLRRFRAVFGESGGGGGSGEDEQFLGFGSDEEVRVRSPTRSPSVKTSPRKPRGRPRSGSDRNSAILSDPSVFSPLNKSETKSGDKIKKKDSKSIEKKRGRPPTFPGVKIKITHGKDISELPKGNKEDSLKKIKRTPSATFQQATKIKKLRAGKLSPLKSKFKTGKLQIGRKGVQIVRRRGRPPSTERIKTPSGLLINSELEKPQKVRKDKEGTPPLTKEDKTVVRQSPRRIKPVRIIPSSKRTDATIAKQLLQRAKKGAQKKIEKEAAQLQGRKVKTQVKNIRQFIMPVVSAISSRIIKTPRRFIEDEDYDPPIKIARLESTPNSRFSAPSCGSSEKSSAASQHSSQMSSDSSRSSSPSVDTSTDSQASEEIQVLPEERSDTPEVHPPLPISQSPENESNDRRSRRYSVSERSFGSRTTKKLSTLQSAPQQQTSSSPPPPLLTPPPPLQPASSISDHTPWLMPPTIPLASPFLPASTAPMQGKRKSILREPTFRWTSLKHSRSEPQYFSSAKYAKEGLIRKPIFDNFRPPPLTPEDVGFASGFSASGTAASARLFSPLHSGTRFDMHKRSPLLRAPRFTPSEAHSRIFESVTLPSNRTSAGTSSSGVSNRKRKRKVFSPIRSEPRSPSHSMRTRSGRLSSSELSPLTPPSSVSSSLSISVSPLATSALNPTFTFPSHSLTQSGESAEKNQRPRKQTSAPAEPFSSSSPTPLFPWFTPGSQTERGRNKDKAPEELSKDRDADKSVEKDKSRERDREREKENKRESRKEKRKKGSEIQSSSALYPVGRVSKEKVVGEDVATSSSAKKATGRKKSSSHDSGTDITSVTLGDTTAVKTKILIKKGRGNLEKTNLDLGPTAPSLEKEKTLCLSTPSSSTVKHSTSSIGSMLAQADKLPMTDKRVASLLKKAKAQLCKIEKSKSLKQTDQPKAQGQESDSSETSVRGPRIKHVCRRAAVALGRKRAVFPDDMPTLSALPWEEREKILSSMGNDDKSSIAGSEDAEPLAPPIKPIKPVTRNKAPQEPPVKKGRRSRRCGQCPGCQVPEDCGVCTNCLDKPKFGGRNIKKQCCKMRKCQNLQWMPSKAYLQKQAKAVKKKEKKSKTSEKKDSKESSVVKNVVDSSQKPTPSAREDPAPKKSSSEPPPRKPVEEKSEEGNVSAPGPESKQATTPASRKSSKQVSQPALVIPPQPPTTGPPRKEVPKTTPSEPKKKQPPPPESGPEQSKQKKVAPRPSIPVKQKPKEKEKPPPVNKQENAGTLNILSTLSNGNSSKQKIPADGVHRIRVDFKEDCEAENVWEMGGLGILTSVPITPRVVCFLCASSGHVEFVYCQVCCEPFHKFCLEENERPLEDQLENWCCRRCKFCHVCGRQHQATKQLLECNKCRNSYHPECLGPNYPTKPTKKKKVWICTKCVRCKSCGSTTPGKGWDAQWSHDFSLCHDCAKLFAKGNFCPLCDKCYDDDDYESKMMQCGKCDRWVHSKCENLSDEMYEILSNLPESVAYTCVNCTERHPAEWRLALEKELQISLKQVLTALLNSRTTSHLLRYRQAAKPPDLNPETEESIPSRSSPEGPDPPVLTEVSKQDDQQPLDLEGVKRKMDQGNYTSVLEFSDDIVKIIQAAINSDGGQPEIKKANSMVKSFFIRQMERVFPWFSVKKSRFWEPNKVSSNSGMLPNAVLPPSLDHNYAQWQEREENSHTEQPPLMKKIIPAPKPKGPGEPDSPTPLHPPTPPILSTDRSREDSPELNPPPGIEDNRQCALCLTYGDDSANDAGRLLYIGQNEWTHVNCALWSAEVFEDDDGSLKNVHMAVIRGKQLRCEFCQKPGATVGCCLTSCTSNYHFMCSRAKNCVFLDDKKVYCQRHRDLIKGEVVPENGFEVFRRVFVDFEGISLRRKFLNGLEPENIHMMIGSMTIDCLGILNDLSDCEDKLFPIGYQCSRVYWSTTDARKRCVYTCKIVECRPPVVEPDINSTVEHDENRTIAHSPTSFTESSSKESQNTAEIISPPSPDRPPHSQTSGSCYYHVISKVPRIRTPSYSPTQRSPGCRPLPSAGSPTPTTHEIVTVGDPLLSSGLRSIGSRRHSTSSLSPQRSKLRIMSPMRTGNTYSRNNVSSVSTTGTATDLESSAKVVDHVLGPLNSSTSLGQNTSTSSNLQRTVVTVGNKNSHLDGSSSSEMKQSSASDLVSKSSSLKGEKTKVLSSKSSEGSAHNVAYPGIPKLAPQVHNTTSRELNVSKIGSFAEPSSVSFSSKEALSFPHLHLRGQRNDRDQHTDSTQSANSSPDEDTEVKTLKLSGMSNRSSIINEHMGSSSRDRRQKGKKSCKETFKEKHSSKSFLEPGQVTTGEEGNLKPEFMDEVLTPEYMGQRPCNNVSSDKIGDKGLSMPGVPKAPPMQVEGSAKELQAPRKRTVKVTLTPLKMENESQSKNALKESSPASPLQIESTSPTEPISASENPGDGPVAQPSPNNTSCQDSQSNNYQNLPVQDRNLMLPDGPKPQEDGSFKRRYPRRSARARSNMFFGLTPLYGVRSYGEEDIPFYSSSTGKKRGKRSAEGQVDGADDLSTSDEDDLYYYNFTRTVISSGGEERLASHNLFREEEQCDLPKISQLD
# Chain of Histone-lysine N-methyltransferase 2A (Homo sapiens) (Q03164 2719-3969 limits assumed): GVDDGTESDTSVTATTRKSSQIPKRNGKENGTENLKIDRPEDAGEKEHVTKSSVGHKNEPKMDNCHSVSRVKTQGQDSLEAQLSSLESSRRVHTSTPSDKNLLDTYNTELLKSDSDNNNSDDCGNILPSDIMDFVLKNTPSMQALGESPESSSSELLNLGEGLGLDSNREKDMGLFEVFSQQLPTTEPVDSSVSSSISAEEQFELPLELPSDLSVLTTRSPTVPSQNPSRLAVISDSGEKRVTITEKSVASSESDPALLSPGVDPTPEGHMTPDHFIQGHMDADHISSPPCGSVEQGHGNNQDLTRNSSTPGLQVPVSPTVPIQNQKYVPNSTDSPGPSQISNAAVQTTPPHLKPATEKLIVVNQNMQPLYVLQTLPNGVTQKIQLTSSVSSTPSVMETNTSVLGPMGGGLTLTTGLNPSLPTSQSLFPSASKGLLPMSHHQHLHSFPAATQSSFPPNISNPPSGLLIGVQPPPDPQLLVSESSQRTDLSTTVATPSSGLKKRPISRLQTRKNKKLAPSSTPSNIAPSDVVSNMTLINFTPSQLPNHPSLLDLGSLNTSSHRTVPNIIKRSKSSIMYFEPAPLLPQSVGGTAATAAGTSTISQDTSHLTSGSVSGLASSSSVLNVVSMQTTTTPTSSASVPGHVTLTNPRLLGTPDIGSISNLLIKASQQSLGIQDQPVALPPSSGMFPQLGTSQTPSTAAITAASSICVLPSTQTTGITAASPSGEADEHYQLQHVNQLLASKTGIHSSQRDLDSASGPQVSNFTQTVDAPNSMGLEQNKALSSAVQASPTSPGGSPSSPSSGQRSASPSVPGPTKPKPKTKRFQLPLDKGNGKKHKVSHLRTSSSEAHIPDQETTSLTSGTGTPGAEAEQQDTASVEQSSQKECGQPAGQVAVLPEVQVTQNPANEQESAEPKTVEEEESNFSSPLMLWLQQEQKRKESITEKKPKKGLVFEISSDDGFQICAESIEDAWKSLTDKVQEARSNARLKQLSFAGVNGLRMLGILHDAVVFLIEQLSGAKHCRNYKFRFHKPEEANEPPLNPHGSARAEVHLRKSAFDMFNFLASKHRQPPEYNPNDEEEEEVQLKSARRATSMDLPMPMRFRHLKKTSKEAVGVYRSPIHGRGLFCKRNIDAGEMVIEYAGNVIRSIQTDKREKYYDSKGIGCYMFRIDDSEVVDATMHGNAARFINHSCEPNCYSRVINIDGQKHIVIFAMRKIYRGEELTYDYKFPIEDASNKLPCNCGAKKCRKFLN
# [9] = target: T3, Interleukin-1 receptor-associated kinase 3 (Homo sapiens) (UniProt Q9Y616); assay: Selectivity interaction (ActivX KiNativ screen (kinase selectivity in THP-1 cell lysates)) EUB0000639a IRAK3; assay type: subcellular; settings: lysate, at 1 µM
# T3 sequence (whole entry): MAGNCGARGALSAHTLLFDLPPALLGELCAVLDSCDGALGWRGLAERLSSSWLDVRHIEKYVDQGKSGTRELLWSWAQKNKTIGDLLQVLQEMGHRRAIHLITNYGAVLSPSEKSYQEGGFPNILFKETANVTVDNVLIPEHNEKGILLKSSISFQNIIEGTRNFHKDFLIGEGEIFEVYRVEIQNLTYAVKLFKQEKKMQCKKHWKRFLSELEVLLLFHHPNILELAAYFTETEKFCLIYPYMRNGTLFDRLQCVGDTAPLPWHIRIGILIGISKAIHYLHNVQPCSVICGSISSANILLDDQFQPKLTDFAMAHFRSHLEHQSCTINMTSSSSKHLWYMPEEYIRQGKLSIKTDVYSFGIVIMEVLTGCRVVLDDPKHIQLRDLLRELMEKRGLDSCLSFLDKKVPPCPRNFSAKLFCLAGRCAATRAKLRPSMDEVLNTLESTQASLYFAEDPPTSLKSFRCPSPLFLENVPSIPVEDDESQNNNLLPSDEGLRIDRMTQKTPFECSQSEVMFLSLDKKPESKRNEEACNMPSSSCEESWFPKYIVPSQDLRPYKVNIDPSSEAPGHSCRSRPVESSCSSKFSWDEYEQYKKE
# [10] = target: Ephrin type-A receptor 4 (Homo sapiens, UniProt P54764); assay: Selectivity interaction (KinomeScan (DiscoverX)) EUB0000655a EPHA4; settings: at 10 µM
# [11] = target: Protein-tyrosine kinase 2-beta (Homo sapiens) (UniProt Q14289); settings: at 10 µM
smiles,measurement,setting,value
COc1cc(N(C)c2ccnc3ccc(C(F)(F)F)cc23)cc(OC)c1OC,% binding,[1],76%
same,% binding,[2],86%
Cc1cc(F)c(C(=O)Nc2cccc(-c3nncn3C(C)C)n2)cc1-n1cnc(C2CC2)c1,% of control,[3],100%
Cn1cc(-n2cnc3c(NCc4nc5cc(Cl)c(Cl)cc5[nH]4)nc(N4CCOCC4)nc32)cn1,% of control,[4],-4.87%
Cc1cc([C@@H](C)Nc2ccccc2C(=O)O)c2nc(N3CCOCC3)cc(=O)n2c1 [AZD-6482],% of control,[5],95%
CC(=O)c1cc(-c2ccccc2OCC2CC2)c2ncccn12,% of control,[6],105%
COc1cc(Nc2nc(C)cc(-c3cnn4nc(OC)ccc34)n2)cc(C(F)(F)F)c1,% of control,[7],98%
COCCN1CCC(c2cc(CN(C)C(=O)c3cccc(Oc4ccccc4)c3)ccn2)CC1,% activity,[8]; at 1 µM,> 95%
same,% activity,[8]; at 10 µM,> 90%
CC[C@@H]1[C@H](F)C(=O)N[C@@H]1COc1nccc2cc(C(N)=O)c(OC)cc12 [ZIMLOVISERTIB],% of inhibition,[9],73%
CN(C)CCOc1ccc(-c2nc(-c3ccncc3)c(-c3ccc4c(c3)CC/C4=N\O)[nH]2)cc1,% of control,[10],100%
CCN(CC)CCCCNc1ncc2cc(-c3cc(OC)cc(OC)c3)c(NC(=O)NC(C)(C)C)nc2n1,% of control,[11],100%
